Experimental data as given in patent US20250312334A1, “COMPOSITION CONTAINING ARIPIPRAZOLE AS ACTIVE INGREDIENT FOR ENHANCING ANTICANCER EFFECT OF RAF INHIBITOR” (KOREA INSTITUTE OF RADIOLOGICAL & MEDICAL SCIENCES, priority 2022, published 2025).

System: COLO 205 cells
Test: Western blot of NOXA and PUMA protein expression after aripiprazole treatment
Type: cell-based
Settings: 8 hours after treatment, Western blot (FIG. 1)
Method: To identify an effect of aripiprazole on the expression of NOXA and PUMA proteins in cancer cells, COLO 205 cells were treated with aripiprazole. Eight hours later, proteins were extracted from cells after washing with PBS, and a level of NOXA and PUMA expression was checked via Western blot.

O=C1CCc2ccc(OCCCCN3CCN(c4cccc(Cl)c4Cl)CC3)cc2N1 [aripiprazole]
expression of NOXA protein: increased
expression of PUMA protein: increased
